Where a SMILES comes first, the peptide text is derived from it.
What was measured:
Test in all cases: biochemical
Assay type in all cases: binding
[1] = molecular target: HLA A*3001 (Homo sapiens, UniProt P04439, D140H/D185E/E176W/F33S/G80R/H175R/K168Q/R138E/R41S)
[2] = molecular target: HLA B*1501 (Homo sapiens, UniProt P01889, A329T/A93T/A95T/C349S/D201E/D98Y/E187L/E204Q/E69M/E70A/K202T/N87E/Q94N/R155S/R180W/S121R/S35A/S48A/V306I/V36M/Y140S/Y91S)
[3] = molecular target: HLA B*1503 (Homo sapiens, UniProt P01889, A329T/A93T/A95T/C349S/D201E/D98Y/E187L/E204Q/K202T/N87E/Q94N/R155S/R180L/S121R/S35A/V306I/V36M/Y140S/Y91S)
[4] = molecular target: HLA A*3201 (Homo sapiens, UniProt P04439, A270S/D101S/D185E/E176V/E277Q/F133L/G103R/G107R/G231S/H175R/I121M/I218V/I322F/K168Q/L105A/L300P/L318F/M331R/P208A/P217A/Q94H/R106L/R138Q/S129P/T104I/T323A/T345S/V100E/V321M/V358M)

HLA A*3001, sequence (P04439 25-365 limits assumed, stated change not applied): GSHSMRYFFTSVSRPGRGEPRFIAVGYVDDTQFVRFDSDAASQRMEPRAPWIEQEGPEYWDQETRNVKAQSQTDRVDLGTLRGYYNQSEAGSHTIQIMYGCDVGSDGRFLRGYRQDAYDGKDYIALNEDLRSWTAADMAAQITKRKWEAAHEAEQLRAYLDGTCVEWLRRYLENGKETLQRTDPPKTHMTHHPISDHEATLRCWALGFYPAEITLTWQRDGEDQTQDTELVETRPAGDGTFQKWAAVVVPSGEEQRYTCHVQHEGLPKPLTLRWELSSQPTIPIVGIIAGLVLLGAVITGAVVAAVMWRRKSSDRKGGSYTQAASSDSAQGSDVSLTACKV

Row | SMILES | IC50 [2] [nM] | IC50 [4] [nM] | other results
1 | CC[C@H](C)[C@H](NC(=O)[C@H](Cc1ccc(O)cc1)NC(=O)[C@H](C)NC(=O)[C@H](C)NC(=O)[C@H](Cc1c[nH]cn1)NC(=O)[C@H](CO)NC(=O)[C@@H](N)CCCCN)C(=O)N[C@@H](CC(=O)O)C(=O)N[C@@H](Cc1ccc(O)cc1)C(=O)O [3102.0209] (H-KSHAAYIDY-OH) | 1.8 | – | IC50 [1]: 12 nM; IC50 [3]: 1.7 nM
2 | CC(C)C[C@H](NC(=O)[C@@H](NC(=O)[C@H](CO)NC(=O)[C@H](CCCCN)NC(=O)[C@@H](NC(=O)[C@@H](N)Cc1c[nH]cn1)C(C)C)[C@@H](C)O)C(=O)N[C@@H](CC(N)=O)C(=O)N[C@@H](CC(N)=O)C(=O)N[C@@H](C)C(=O)O [3102.0217] (H-HVKSTLNNA-OH) | 367 | – | IC50 [1]: 1.2 nM
3 | CC[C@H](C)[C@H](NC(=O)[C@H](CO)NC(=O)[C@@H](N)CCCCN)C(=O)N[C@@H](CCC(=O)O)C(=O)N[C@@H](CCC(N)=O)C(=O)N[C@@H](Cc1c[nH]cn1)C(=O)N1CCC[C@H]1C(=O)N[C@H](C(=O)N[C@H](C(=O)O)C(C)C)C(C)C [3102.0246] (H-KSIEQHPVV-OH) | 71 | – | IC50 [1]: 2.7 nM
4 | CC[C@H](C)[C@H](NC(=O)[C@H](Cc1ccccc1)NC(=O)[C@H](CC(C)C)NC(=O)[C@@H](NC(=O)[C@@H](N)CC(C)C)[C@@H](C)CC)C(=O)N[C@@H](CO)C(=O)N[C@H](C(=O)N1CCC[C@H]1C(=O)N[C@@H](Cc1ccccc1)C(=O)O)[C@@H](C)CC [3102.0290] (H-LILFISIPF-OH) | – | 25 | –
5 | CC[C@H](C)[C@H](NC(=O)[C@H](CCCCN)NC(=O)[C@H](Cc1ccccc1)NC(=O)[C@H](CCSC)NC(=O)[C@@H](N)[C@@H](C)O)C(=O)N[C@H](C(=O)N[C@@H](Cc1ccc(O)cc1)C(=O)N[C@@H](CO)C(=O)N[C@@H](CC(C)C)C(=O)O)C(C)C [3102.0291] (H-TMFKIVYSL-OH) | – | 0.92 | –
6 | CC(C)C[C@H](NC(=O)[C@@H](NC(=O)[C@H](Cc1ccc(O)cc1)NC(=O)[C@H](CCCNC(=N)N)NC(=O)[C@H](CC(C)C)NC(=O)[C@H](CCC(=O)O)NC(=O)[C@H](Cc1ccc(O)cc1)NC(=O)[C@@H](NC(=O)[C@@H](N)C(C)C)[C@@H](C)O)[C@@H](C)O)C(=O)O [3102.0294] (H-VTYELRYTL-OH) | – | 12 | –
7 | CC(C)C[C@H](NC(=O)CNC(=O)[C@H](C)NC(=O)[C@@H](NC(=O)[C@H](C)N)[C@@H](C)O)C(=O)N[C@@H](Cc1c[nH]cn1)C(=O)N[C@@H](CC(C)C)C(=O)NCC(=O)N[C@@H](Cc1ccccc1)C(=O)O [3102.0295] (H-ATAGLHLGF-OH) | – | 1.7 | –
8 | CC[C@H](C)[C@H](NC(=O)[C@H](Cc1ccccc1)NC(=O)[C@@H](NC(=O)[C@H](CCC(N)=O)NC(=O)[C@@H](N)CCCNC(=N)N)[C@@H](C)CC)C(=O)N[C@@H](Cc1c[nH]cn1)C(=O)N[C@@H](Cc1ccc(O)cc1)C(=O)N[C@@H](CO)C(=O)N[C@H](C(=O)O)C(C)C [3102.0296] (H-RQIFIHYSV-OH) | – | 1 | –
9 | CC[C@H](C)[C@H](NC(=O)[C@@H](NC(=O)[C@H](CC(C)C)NC(=O)[C@H](CO)NC(=O)[C@H](CCC(N)=O)NC(=O)[C@H](Cc1ccccc1)NC(=O)[C@H](CC(=O)O)NC(=O)[C@H](CCC(N)=O)NC(=O)[C@H](C)N)[C@@H](C)O)C(=O)O [3102.0299] (H-AQDFQSLTI-OH) | – | 68 | –
10 | CC[C@H](C)[C@H](N)C(=O)N[C@@H](CC(C)C)C(=O)N[C@@H](Cc1ccc(O)cc1)C(=O)N[C@@H](Cc1ccc(O)cc1)C(=O)N[C@@H](CC(C)C)C(=O)N[C@@H](CO)C(=O)N[C@@H](C)C(=O)N[C@@H](CCCCN)C(=O)N[C@H](C(=O)O)[C@@H](C)CC [3102.0300] (H-ILYYLSAKI-OH) | – | 8.9 | –
11 | CC(C)C[C@H](NC(=O)[C@H](Cc1ccc(O)cc1)NC(=O)[C@H](CC(N)=O)NC(=O)[C@H](Cc1ccccc1)NC(=O)[C@H](Cc1c[nH]c2ccccc12)NC(=O)[C@H](CC(C)C)NC(=O)[C@H](CC(C)C)NC(=O)[C@@H](N)CC(C)C)C(=O)N[C@@H](Cc1ccccc1)C(=O)O [3102.0301] (H-LLLWFNYLF-OH) | – | 1.5 | –
12 | CC[C@H](C)[C@H](NC(=O)[C@H](Cc1ccccc1)NC(=O)[C@@H](NC(=O)[C@@H](NC(=O)[C@@H](N)CO)[C@@H](C)CC)[C@@H](C)CC)C(=O)N[C@@H](CC(N)=O)C(=O)N[C@@H](Cc1ccc(O)cc1)C(=O)N[C@H](C(=O)N[C@@H](CCSC)C(=O)O)[C@@H](C)O [3102.0303] (H-SIIFINYTM-OH) | – | 6.5 | –
13 | CC[C@H](C)[C@H](NC(=O)[C@H](CO)NC(=O)[C@H](CO)NC(=O)[C@@H](NC(=O)[C@H](CO)NC(=O)[C@H](Cc1ccccc1)NC(=O)[C@@H](NC(=O)[C@@H](N)CO)[C@@H](C)O)[C@@H](C)CC)C(=O)N[C@@H](Cc1ccccc1)C(=O)O [3102.0305] (H-STFSISSIF-OH) | – | 1.1 | –
14 | CC[C@H](C)[C@H](NC(=O)[C@@H](NC(=O)[C@H](Cc1ccccc1)NC(=O)[C@H](Cc1ccccc1)NC(=O)[C@H](CC(C)C)NC(=O)[C@H](Cc1ccccc1)NC(=O)[C@H](CC(=O)O)NC(=O)[C@@H](NC(=O)[C@@H](N)CCCCN)[C@@H](C)CC)[C@@H](C)CC)C(=O)O [3102.0306] (H-KIDFLFFII-OH) | – | 2 | –
15 | C[C@@H](O)[C@H](NC(=O)[C@H](CCCNC(=N)N)NC(=O)[C@H](CC(N)=O)NC(=O)[C@H](Cc1ccccc1)NC(=O)[C@@H](NC(=O)[C@@H](N)CCCNC(=N)N)[C@@H](C)O)C(=O)N[C@@H](Cc1c[nH]cn1)C(=O)N[C@@H](Cc1ccc(O)cc1)C(=O)N[C@@H](Cc1c[nH]c2ccccc12)C(=O)O [3102.0309] (H-RTFNRTHYW-OH) | – | 0.24 | –
16 | CC[C@H](C)[C@H](NC(=O)[C@H](CO)NC(=O)[C@H](CCC(N)=O)NC(=O)[C@H](CCC(N)=O)NC(=O)[C@H](CC(C)C)NC(=O)[C@H](Cc1ccccc1)NC(=O)[C@H](CC(C)C)NC(=O)[C@@H](NC(=O)[C@@H](N)CCCCN)C(C)C)C(=O)O [3102.0312] (H-KVLFLQQSI-OH) | – | 0.7 | –
17 | CC[C@H](C)[C@H](NC(=O)[C@@H](N)CO)C(=O)N[C@@H](Cc1ccc(O)cc1)C(=O)NCC(=O)N[C@@H](Cc1ccccc1)C(=O)NCC(=O)N[C@H](C(=O)N[C@H](C(=O)N[C@@H](Cc1ccccc1)C(=O)O)[C@@H](C)O)C(C)C [3102.0314] (H-SIYGFGVTF-OH) | – | 0.11 | –
18 | CSCC[C@H](NC(=O)[C@H](CCCCN)NC(=O)[C@H](CC(N)=O)NC(=O)[C@H](CC(C)C)NC(=O)[C@@H](N)CCCCN)C(=O)N[C@H](C(=O)N[C@H](C(=O)N[C@@H](CCC(=O)O)C(=O)N[C@@H](CC(C)C)C(=O)O)C(C)C)[C@@H](C)O [3102.0316] (H-KLNKMTVEL-OH) | – | 1.7 | –
19 | CC[C@H](C)[C@H](NC(=O)[C@@H](NC(=O)[C@@H](NC(=O)[C@H](Cc1ccccc1)NC(=O)[C@H](Cc1ccccc1)NC(=O)[C@@H](NC(=O)[C@H](CC(C)C)NC(=O)[C@@H](NC(=O)[C@@H](N)CO)[C@@H](C)O)[C@@H](C)CC)C(C)C)[C@@H](C)CC)C(=O)O [3102.0317] (H-STLIFFVII-OH) | – | 18 | –
20 | CC(C)[C@H](NC(=O)CNC(=O)[C@H](Cc1ccc(O)cc1)NC(=O)[C@@H](NC(=O)[C@@H](N)CCCNC(=N)N)[C@@H](C)O)C(=O)N[C@@H](CC(N)=O)C(=O)N[C@@H](Cc1ccc(O)cc1)C(=O)N[C@H](C(=O)N[C@@H](Cc1ccccc1)C(=O)O)[C@@H](C)O [3102.0318] (H-RTYGVNYTF-OH) | – | 0.26 | –
21 | CC(C)C[C@H](NC(=O)[C@H](CO)NC(=O)[C@H](CO)NC(=O)CNC(=O)[C@H](CO)NC(=O)[C@H](CCCCN)NC(=O)[C@H](C)NC(=O)[C@H](CCC(N)=O)NC(=O)[C@@H](N)CC(C)C)C(=O)O [3102.1276] (H-LQAKSGSSL-OH) | 4.6 | – | IC50 [3]: 0.33 nM
22 | CC[C@H](C)[C@H](NC(=O)[C@H](CCSC)NC(=O)[C@H](CC(C)C)NC(=O)[C@H](CCSC)NC(=O)[C@@H](N)CCSC)C(=O)NCC(=O)N[C@@H](CC(N)=O)C(=O)N[C@@H](Cc1ccc(O)cc1)C(=O)N[C@@H](Cc1ccccc1)C(=O)O [3102.1301] (H-MMLMIGNYF-OH) | 33 | – | IC50 [3]: 0.2 nM
23 | CC(C)C[C@H](NC(=O)[C@H](C)N)C(=O)N[C@@H](CCCNC(=N)N)C(=O)N1CCC[C@H]1C(=O)N[C@@H](CO)C(=O)N[C@@H](CO)C(=O)N[C@@H](CCC(N)=O)C(=O)N[C@H](C(=O)N[C@@H](Cc1ccccc1)C(=O)O)C(C)C [3102.1320] (H-ALRPSSQVF-OH) | 1.5 | – | IC50 [3]: 0.095 nM
24 | CC[C@H](C)[C@H](NC(=O)[C@H](Cc1c[nH]cn1)NC(=O)[C@H](CCC(N)=O)NC(=O)[C@H](CO)NC(=O)[C@H](CCC(=O)O)NC(=O)[C@@H](N)CC(C)C)C(=O)N[C@H](C(=O)N[C@@H](CO)C(=O)N[C@@H](Cc1ccccc1)C(=O)O)[C@@H](C)CC [3102.1322] (H-LESQHIISF-OH) | 57 | – | IC50 [3]: 28 nM
25 | CC[C@H](C)[C@H](NC(=O)[C@H](CO)NC(=O)[C@@H](N)Cc1ccccc1)C(=O)N[C@@H](Cc1ccc(O)cc1)C(=O)N[C@@H](CO)C(=O)N[C@H](C(=O)N[C@@H](CO)C(=O)N[C@@H](CS)C(=O)N[C@@H](Cc1ccccc1)C(=O)O)C(C)C [3102.1330] (H-FSIYSVSCF-OH) | 3.1 | – | IC50 [3]: 7.6 nM
26 | CC(C)C[C@H](NC(=O)[C@H](CO)NC(=O)[C@@H]1CCCN1C(=O)[C@H](CO)NC(=O)[C@H](Cc1ccccc1)NC(=O)[C@H](CO)NC(=O)[C@@H](N)C(C)C)C(=O)N[C@H](C(=O)N[C@@H](Cc1ccccc1)C(=O)O)[C@@H](C)O [3102.1333] (H-VSFSPSLTF-OH) | 1.3 | – | IC50 [3]: 1.2 nM
